Data taken from PMC6150310, “Synthesis and Structure–Activity Relationships of 4-Morpholino-7,8-Dihydro-5H-Thiopyrano[4,3-d]pyrimidine Derivatives Bearing Pyrazoline Scaffold” (Molecules : A Journal of Synthetic Chemistry and Natural …, 2017).

Tests used:
A549 cell line = test: MTT cytotoxicity assay, A549; type: cell-based; conditions: Homo sapiens, A549, 72 h, average of two determinations, NA = No Activity
Procedure: (§1) Taking GDC-0941 as the reference compound, the target compounds (7a–l and 8a–l) were evaluated for the cytotoxicity against four cancer cell lines A549, PC-3, MCF-7, and HepG2 by 3-(4,5-dimethylthiazolyl-2)-2,5-diphenyltetrazolium bromide (MTT) cell proliferation assay. In order to confirm the types of target compound, selective or mixed-type inhibitors, the selected compound, 8d, was measured for its PI3Kα kinase inhibitory activity together with reference compounds GDC-0941 and PI103 via the Kinase-Glo® Luminescent […] assay. The results expressed as inhibition rates or IC50 values are summarized in Table 1 and Table 2, where the values are the average of at least two independent experiments.
(§2) The in vitro cytotoxic activities of Compounds 7a–l and 8a–l were evaluated with A549, PC-3, HepG2, and MCF-7 cell lines by the standard MTT assay, with GDC-0941 as a positive control. The cancer cell lines were cultured in minimum essential medium (MEM) supplement with 10% fetal bovine serum (FBS). Approximately, 4 × 10^3 cells, suspended in MEM medium, were plated onto each well of a 96-well plate and incubated in 5% CO2 at 37 °C for 24 h. The test compounds at the indicated final concentrations were added to the culture medium, and cell cultures continued for 72 h. Fresh MTT was added to each well at a terminal concentration of […] and incubated with cells at 37 °C for 4 h. The formazan crystals were dissolved in 100 µL of DMSO in each well, and the absorbency at 492 nm (for absorbance of MTT formazan) and 630 nm (for the reference wavelength) was measured with an enzyme linked immunosorbent assay (ELISA) reader (MR-96A Mindray Elisa Microplate Reader, Guangzhou, China). All compounds were tested three times in each of the cell lines. The results expressed as inhibition rates or IC50 were the averages of two determinations and calculated using the Bacus Laboratories Inc. Slide Scanner (Bliss) software (the Bacus Laboratories Inc. Slide Scanner (BLISS) system, Lombard, IL, USA).

HepG2 cell line = test: MTT cytotoxicity assay, HepG2; type: cell-based; conditions: Homo sapiens, HepG2, 72 h, average of two determinations, NA = No Activity
Procedure: as §1, §2

PC-3 cell line = test: MTT cytotoxicity assay, PC-3; type: cell-based; conditions: Homo sapiens, PC-3, 72 h, average of two determinations, NA = No Activity
Procedure: as §1, §2

MCF-7 cell line = test: MTT cytotoxicity assay, MCF-7; type: cell-based; conditions: Homo sapiens, MCF7, 72 h, average of two determinations, NA = No Activity
Procedure: as §1, §2

| Structure (SMILES) | IC50 (A549 cell line) [µM] | IC50 (HepG2 cell line) [µM] | IC50 (PC-3 cell line) [µM] | melting point [°C] | IC50 (MCF-7 cell line) [µM] |
| --- | --- | --- | --- | --- | --- |
| Cc1ccc(C2=NN(c3nc4c(c(N5CCOCC5)n3)CS(=O)(=O)CC4)[C@@H](c3ccc(Br)cc3)C2)cc1 (racemic) [Compound 8i, (R)-2-(5-(4-Bromophenyl)-3-(p-tolyl)-4,5-dihydro-1H-pyrazol-1-yl)-4-morpholino-7,8-dihydro-5H-thiopyrano[4,3-d]pyrimidine 6,6-dioxide] | 28.1 ± 0.89 | 24.7 ± 0.74 | 31.89 ± 0.25 | – | – |
| O=S1(=O)CCc2nc(N3N=C(c4ccc(F)cc4)C[C@@H]3c3ccc(F)cc3)nc(N3CCOCC3)c2C1 [Compound 8g, (R)-2-(3,5-bis(4-Fluorophenyl)-4,5-dihydro-1H-pyrazol-1-yl)-4-morpholino-7,8-dihydro-5H-thiopyrano[4,3-d]pyrimidine 6,6-dioxide] | 29.1 ± 0.49 | 36.01 ± 0.18 | 21.8 ± 0.67 | 246 to 249 | 35.3 ± 0.39 |
| COc1ccc(C2=NN(c3nc4c(c(N5CCOCC5)n3)CS(=O)(=O)CC4)[C@@H](c3ccc(Cl)c(Cl)c3)C2)cc1 [Compound 8f, (R)-2-(5-(3,4-Dichlorophenyl)-3-(4-methoxyphenyl)-4,5-dihydro-1H-pyrazol-1-yl)-4-morpholino-7,8-dihydro-5H-thiopyrano[4,3-d]pyrimidine 6,6-dioxide] | – | 35.01 ± 0.18 | 38.65 ± 0.18 | – | – |
| COc1ccc(C2=NN(c3nc4c(c(N5CCOCC5)n3)CS(=O)(=O)CC4)[C@@H](c3ccccc3)C2)cc1 [Compound 8l, (R)-2-(3-(4-Methoxyphenyl)-5-phenyl-4,5-dihydro-1H-pyrazol-1-yl)-4-morpholino-7,8-dihydro-5H-thiopyrano[4,3-d]pyrimidine 6,6-dioxide] | – | – | 37.38 ± 0.23 | 109 to 114 | – |
| O=S1(=O)CCc2nc(N3N=C(c4ccccc4)C[C@@H]3c3ccccc3)nc(N3CCOCC3)c2C1 [Compound 8a, (R)-2-(3,5-Diphenyl-4,5-dihydro-1H-pyrazol-1-yl)-4-morpholino-7,8-dihydro-5H-thiopyrano[4,3-d]pyrimidine 6,6-dioxide] | 27.6 ± 0.85 | 32.7 ± 0.39 | – | 219 to 220 | 41.2 ± 1.25 |
| COc1ccc(C2=NN(c3nc4c(c(N5CCOCC5)n3)CS(=O)(=O)CC4)[C@@H](c3ccc(F)cc3)C2)cc1 [Compound 8h, (R)-2-(5-(4-Fluorophenyl)-3-(4-methoxyphenyl)-4,5-dihydro-1H-pyrazol-1-yl)-4-morpholino-7,8-dihydro-5H-thiopyrano[4,3-d]pyrimidine 6,6-dioxide] | 35 ± 0.74 | 32.9 ± 2.82 | 26.6 ± 0.33 | 140 to 142 | 33.9 ± 0.45 |
| Cc1ccc(C2=NN(c3nc4c(c(N5CCOCC5)n3)CSCC4)[C@@H](c3ccc(Br)cc3)C2)cc1 (racemic) [Compound 7i, (R)-4-(2-(5-(4-Bromophenyl)-3-(p-tolyl)-4,5-dihydro-1H-pyrazol-1-yl)-7,8-dihydro-5H-thiopyrano[4,3-d]pyrimidin-4-yl)morpholine] | 16.4 ± 0.43 | – | 25.4 ± 0.74 | – | – |
| Brc1ccc([C@H]2CC(c3ccccc3)=NN2c2nc3c(c(N4CCOCC4)n2)CSCC3)cc1 [Compound 7k, (R)-4-(2-(5-(4-Bromophenyl)-3-phenyl-4,5-dihydro-1H-pyrazol-1-yl)-7,8-dihydro-5H-thiopyrano[4,3-d]pyrimidin-4-yl)morpholine] | 31.2 ± 0.59 | 32.7 ± 0.36 | 17.8 ± 0.55 | 167 to 168 | 35.7 ± 0.74 |
| O=S1(=O)CCc2nc(N3N=C(c4ccc(F)cc4)C[C@@H]3c3ccc(Br)cc3)nc(N3CCOCC3)c2C1 (racemic) [Compound 8j, (R)-2-(5-(4-Bromophenyl)-3-(4-fluorophenyl)-4,5-dihydro-1H-pyrazol-1-yl)-4-morpholino-7,8-dihydro-5H-thiopyrano[4,3-d]pyrimidine 6,6-dioxide] | 29.7 ± 0.32 | 27.8 ± 0.64 | 31.9 ± 0.92 | – | 46.6 ± 0.89 |
| CS(=O)(=O)N1CCN(Cc2cc3nc(-c4cccc5[nH]ncc45)nc(N4CCOCC4)c3s2)CC1 [GDC-0941, Pictilisib dimethanesulfonate, reference compound] | 6.99 ± 0.21 | 0.07 ± 0.03 | 0.2 ± 0.08 | – | 4.3 ± 0.84 |
| O=S1(=O)CCc2nc(N3N=C(c4ccc(Br)cc4)C[C@@H]3c3ccc(Cl)c(Cl)c3)nc(N3CCOCC3)c2C1 [Compound 8c, (R)-2-(3-(4-Bromophenyl)-5-(3,4-dichlorophenyl)-4,5-dihydro-1H-pyrazol-1-yl)-4-morpholino-7,8-dihydro-5H-thiopyrano[4,3-d]pyrimidine 6,6-dioxide] | 27.8 ± 1.18 | 0.06 ± 0.01 | 37.58 ± 0.22 | 162 to 163 | 43.86 ± 0.15 |
| COc1ccc(C2=NN(c3nc4c(c(N5CCOCC5)n3)CSCC4)[C@@H](c3ccccc3)C2)cc1 [Compound 7l, (R)-4-(2-(3-(4-Methoxyphenyl)-5-phenyl-4,5-dihydro-1H-pyrazol-1-yl)-7,8-dihydro-5H-thiopyrano[4,3-d]pyrimidin-4-yl)morpholine] | 36.4 ± 0.62 | – | 28.25 ± 0.14 | > 300 | – |
| Cc1ccc(C2=NN(c3nc4c(c(N5CCOCC5)n3)CSCC4)[C@@H](c3ccc(Cl)c(Cl)c3)C2)cc1 [Compound 7b, (R)-4-(2-(5-(3,4-Dichlorophenyl)-3-(p-tolyl)-4,5-dihydro-1H-pyrazol-1-yl)-7,8-dihydro-5H-thiopyrano[4,3-d]pyrimidin-4-yl)morpholine] | 24.2 ± 0.74 | 27.8 ± 0.99 | 14.1 ± 3.45 | 194 to 196 | 42.6 ± 1.75 |
| Cc1ccc(C2=NN(c3nc4c(c(N5CCOCC5)n3)CS(=O)(=O)CC4)[C@@H](c3ccc(Cl)c(Cl)c3)C2)cc1 [Compound 8b, (R)-2-(5-(3,4-Dichlorophenyl)-3-(p-tolyl)-4,5-dihydro-1H-pyrazol-1-yl)-4-morpholino-7,8-dihydro-5H-thiopyrano[4,3-d]pyrimidine 6,6-dioxide] | 35.6 ± 1.47 | – | 17.8 ± 1.18 | 225 to 226 | 42.46 ± 0.03 |
| Fc1ccc(C2=NN(c3nc4c(c(N5CCOCC5)n3)CSCC4)[C@@H](c3ccc(Br)cc3)C2)cc1 (racemic) [Compound 7j, (R)-4-(2-(5-(4-Bromophenyl)-3-(4-fluorophenyl)-4,5-dihydro-1H-pyrazol-1-yl)-7,8-dihydro-5H-thiopyrano[4,3-d]pyrimidin-4-yl)morpholine] | 19.2 ± 1.25 | 23.8 ± 0.55 | 14.8 ± 1.02 | – | 28.25 ± 0.14 |
| Clc1ccc([C@H]2CC(c3ccccc3)=NN2c2nc3c(c(N4CCOCC4)n2)CSCC3)cc1Cl (racemic) [Compound 7e, (R)-4-(2-(5-(3,4-Dichlorophenyl)-3-phenyl-4,5-dihydro-1H-pyrazol-1-yl)-7,8-dihydro-5H-thiopyrano[4,3-d]pyrimidin-4-yl)morpholine] | – | – | 37.8 ± 3.64 | – | 35.9 ± 0.71 |
| O=S1(=O)CCc2nc(N3N=C(c4ccccc4)C[C@@H]3c3ccc(Cl)c(Cl)c3)nc(N3CCOCC3)c2C1 [Compound 8e, (R)-2-(5-(3,4-Dichlorophenyl)-3-phenyl-4,5-dihydro-1H-pyrazol-1-yl)-4-morpholino-7,8-dihydro-5H-thiopyrano[4,3-d]pyrimidine 6,6-dioxide] | – | – | – | – | 35.3 ± 0.49 |
